Experimental data reported in article PMC9597353, “Mitoguardin-2–mediated lipid transfer preserves mitochondrial morphology and lipid droplet formation” (The Journal of Cell Biology, 2022).

T1: hMIGA2long (Homo sapiens, UniProt Q7L4E1, V376D/L438E/F495H/I528K)
T1 construct: gene MIGA2; N-terminal 3xFLAG (Expi293F) and/or C-terminal His6 (E. coli), tags kept; dimer
T1 sequence (Q7L4E1 170-593 V376D/L438E/F495H/I528K): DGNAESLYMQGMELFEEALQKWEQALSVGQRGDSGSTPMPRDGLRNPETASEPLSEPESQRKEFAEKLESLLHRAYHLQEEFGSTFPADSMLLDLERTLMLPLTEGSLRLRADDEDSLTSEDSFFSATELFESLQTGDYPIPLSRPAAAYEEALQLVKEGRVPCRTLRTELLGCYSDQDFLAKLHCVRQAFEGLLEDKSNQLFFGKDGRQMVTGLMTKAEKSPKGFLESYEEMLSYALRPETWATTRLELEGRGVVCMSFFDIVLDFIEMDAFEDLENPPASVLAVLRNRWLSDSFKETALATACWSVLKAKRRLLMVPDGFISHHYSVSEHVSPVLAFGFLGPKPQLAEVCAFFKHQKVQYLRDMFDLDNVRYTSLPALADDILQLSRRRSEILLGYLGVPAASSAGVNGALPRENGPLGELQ

T2: hMIGA2C (Homo sapiens, UniProt Q7L4E1)
T2 construct: gene MIGA2; C-terminal domain only, residues 306-593, C-terminal His6 kept, expressed in E. coli BL21(DE3); monomer by SEC
T2 sequence (Q7L4E1 306-593): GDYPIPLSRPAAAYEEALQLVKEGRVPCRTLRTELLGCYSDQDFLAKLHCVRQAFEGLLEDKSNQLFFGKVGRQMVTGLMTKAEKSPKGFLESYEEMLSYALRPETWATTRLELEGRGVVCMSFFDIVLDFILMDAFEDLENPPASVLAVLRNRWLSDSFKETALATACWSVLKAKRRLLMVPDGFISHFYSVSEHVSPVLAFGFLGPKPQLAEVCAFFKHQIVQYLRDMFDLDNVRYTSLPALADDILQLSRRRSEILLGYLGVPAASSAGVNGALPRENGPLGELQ

T3: hMIGA2long (Homo sapiens, UniProt Q7L4E1, R357N/S428G)
T3 construct: gene MIGA2; N-terminal 3xFLAG (Expi293F) and/or C-terminal His6 (E. coli), tags kept; dimer
T3 sequence (Q7L4E1 170-593 R357N/S428G): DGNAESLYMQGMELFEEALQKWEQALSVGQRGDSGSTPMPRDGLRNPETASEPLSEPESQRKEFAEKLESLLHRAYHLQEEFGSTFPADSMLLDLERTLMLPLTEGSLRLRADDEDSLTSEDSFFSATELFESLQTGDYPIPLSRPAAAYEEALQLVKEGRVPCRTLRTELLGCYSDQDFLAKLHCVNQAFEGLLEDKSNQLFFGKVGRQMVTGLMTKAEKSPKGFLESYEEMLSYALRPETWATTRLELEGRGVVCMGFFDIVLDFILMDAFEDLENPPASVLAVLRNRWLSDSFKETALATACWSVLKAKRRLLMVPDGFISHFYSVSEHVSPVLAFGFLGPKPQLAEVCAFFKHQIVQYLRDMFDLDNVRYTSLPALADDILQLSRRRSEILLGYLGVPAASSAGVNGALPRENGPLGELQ

T4: hMIGA2long (Homo sapiens, UniProt Q7L4E1)
T4 construct: gene MIGA2; N-terminal 3xFLAG (Expi293F) and/or C-terminal His6 (E. coli), tags kept; dimer
T4 sequence (Q7L4E1 170-593): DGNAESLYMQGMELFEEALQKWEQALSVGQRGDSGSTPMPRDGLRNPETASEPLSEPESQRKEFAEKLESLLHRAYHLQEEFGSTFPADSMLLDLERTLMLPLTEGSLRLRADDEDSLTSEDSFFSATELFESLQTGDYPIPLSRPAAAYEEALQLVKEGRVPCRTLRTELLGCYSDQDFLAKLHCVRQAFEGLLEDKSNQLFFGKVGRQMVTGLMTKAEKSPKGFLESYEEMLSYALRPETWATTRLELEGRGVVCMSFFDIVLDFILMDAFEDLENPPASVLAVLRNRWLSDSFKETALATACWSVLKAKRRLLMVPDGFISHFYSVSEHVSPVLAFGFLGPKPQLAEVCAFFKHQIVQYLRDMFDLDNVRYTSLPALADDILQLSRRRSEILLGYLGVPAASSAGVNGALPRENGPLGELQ

T5: hMIGA2long (Homo sapiens, UniProt Q7L4E1, V381E/V502K/L506D/F524H)
T5 construct: gene MIGA2; N-terminal 3xFLAG (Expi293F) and/or C-terminal His6 (E. coli), tags kept; dimer
T5 sequence (Q7L4E1 170-593 V381E/V502K/L506D/F524H): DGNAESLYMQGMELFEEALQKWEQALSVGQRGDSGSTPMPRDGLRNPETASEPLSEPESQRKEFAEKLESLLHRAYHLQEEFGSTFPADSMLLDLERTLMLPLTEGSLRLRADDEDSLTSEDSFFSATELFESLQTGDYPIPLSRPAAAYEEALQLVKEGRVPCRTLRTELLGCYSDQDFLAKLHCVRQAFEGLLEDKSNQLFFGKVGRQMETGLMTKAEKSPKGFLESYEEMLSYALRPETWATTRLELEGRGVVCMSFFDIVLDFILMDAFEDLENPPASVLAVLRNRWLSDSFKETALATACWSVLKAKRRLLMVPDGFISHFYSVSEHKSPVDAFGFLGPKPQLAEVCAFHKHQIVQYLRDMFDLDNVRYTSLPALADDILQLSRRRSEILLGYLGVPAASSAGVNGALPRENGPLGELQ


Experiments:
hMIGA2long [1] = molecular target: T1, hMIGA2long; assay: FRET lipid transfer between tethered liposomes; assay type: biochemical; settings: labelled compound; 0.25 µM protein, 30°C; mutant M1, 3xFLAG and His6 tags
hMIGA2C = molecular target: T2, hMIGA2C; assay: end-point lipid transfer between tethered liposomes; assay type: biochemical; settings: labelled compound; 0.32 µM protein, 2% NBD-lipid in donor liposomes, 30 min
hMIGA2long [2] = molecular target: T3, hMIGA2long; assay: FRET lipid transfer between tethered liposomes; assay type: biochemical; settings: labelled compound; 0.25 µM protein, 30°C; mutant M3, 3xFLAG and His6 tags
hMIGA2long [3] = molecular target: T4, hMIGA2long; assay: native PAGE co-migration, NBD fluorescence; assay type: binding; settings: labelled compound; on ice 2 h
hMIGA2long [4] = molecular target: T5, hMIGA2long; assay: FRET lipid transfer between tethered liposomes; assay type: biochemical; settings: labelled compound; 0.25 µM protein, 30°C; mutant M2, 3xFLAG and His6 tags
hMIGA2long [5] = molecular target: T4, hMIGA2long; assay: FRET lipid transfer between tethered liposomes; assay type: biochemical; settings: labelled compound; 0.25 µM protein, 2% NBD-lipid in donor liposomes, 30°C
[6] = molecular target: human MIGA2 cytosolic fragment with part of the linker region (coiled-coil) and the C-terminal domain, C-terminal 6xhis (human) (UniProt Q7L4E1); assay: native MS; 200 mM ammonium acetate, 2 mM DTT; protein 1-5 μM; Q Exactive UHMR
[7] = molecular target: the molecule itself; assay: SEC; Superdex 200 16/60, with size standards

Row | Molecule | end-point lipid transfer between tethered liposomes (hMIGA2C) | native PAGE co-migration, NBD fluorescence (hMIGA2long [3]) | further results
1 | CCCCCCCC/C=C\CCCCCCCC(=O)OC[C@H](COP(=O)(O)OCCN)OC(=O)CCCCCCCCCCCNc1ccc([N+](=O)[O-])c2nonc12 [NBD-PEacyl] | Both hMIGA2long and hMIGA2C transport NBD-PEacyl, -PSacyl, -PAacyl, and NBD-PCacyl | Phospholipids (NBD-PAacyl, NBD-PCacyl NBD-PShead, NBD-PEacyl) visualized by their fluorescence, comigrated with protein | lipid transfer impaired (hMIGA2long [1]): all three mutant constructs (M1, M2, M3) are lipid transfer impaired; lipid transfer impaired (hMIGA2long [2]): all three mutant constructs (M1, M2, M3) are lipid transfer impaired; lipid transfer impaired (hMIGA2long [4]): all three mutant constructs (M1, M2, M3) are lipid transfer impaired
2 | CCCCCCCC/C=C\CCCCCCCC(=O)OC[C@H](COP(=O)(O)OC[C@H](N)C(=O)O)OC(=O)CCCCCCCCCCCNc1ccc([N+](=O)[O-])c2nonc12 [NBD-PSacyl] | Both hMIGA2long and hMIGA2C transport NBD-PEacyl, -PSacyl, -PAacyl, and NBD-PCacyl | – | FRET lipid transfer between tethered liposomes (hMIGA2long [5]): hMIGA2long can transport NBD-PSacyl, NBD-PAacyl, NBD-PEacyl, and NBD-PCacyl
3 | CCCCCCCC/C=C\CCCCCCCC(=O)OC[C@H](COP(=O)([O-])OCC[N+](C)(C)C)OC(=O)CCCCCCCCCCCNc1ccc([N+](=O)[O-])c2nonc12 [NBD-PCacyl] | Both hMIGA2long and hMIGA2C transport NBD-PEacyl, -PSacyl, -PAacyl, and NBD-PCacyl | Phospholipids (NBD-PAacyl, NBD-PCacyl NBD-PShead, NBD-PEacyl) visualized by their fluorescence, comigrated with protein | –
4 | human MIGA2 cytosolic fragment with part of the linker region (coiled-coil) and the C-terminal domain, C-terminal 6xhis (from UniProt Q7L4E1 170-593) (domain or fragment) | – | – | stoichiometry N [6]: 2
5 | CCCCCCCC/C=C\CCCCCCCC(=O)OC[C@H](COP(=O)(O)OC[C@H](Nc1ccc([N+](=O)[O-])c2nonc12)C(=O)O)OC(=O)CCCCCCC/C=C\CCCCCCCC [NBD-PShead] | – | Phospholipids (NBD-PAacyl, NBD-PCacyl NBD-PShead, NBD-PEacyl) visualized by their fluorescence, comigrated with protein | –
6 | CCCCCCCC/C=C\CCCCCCCC(=O)OC[C@H](COP(=O)(O)O)OC(=O)CCCCCCCCCCCNc1ccc([N+](=O)[O-])c2nonc12 [NBD-PAacyl] | Both hMIGA2long and hMIGA2C transport NBD-PEacyl, -PSacyl, -PAacyl, and NBD-PCacyl | Phospholipids (NBD-PAacyl, NBD-PCacyl NBD-PShead, NBD-PEacyl) visualized by their fluorescence, comigrated with protein | –
7 | C. elegans MIGA2 cytosolic fragment with the coiled-coil of the linker region and the C-terminal domain (residues 106-496) (domain or fragment, UniProt Q21096 106-496, looked up, C. elegans MIGA (mitoguardin homolog), Uniprot Q21096, residues 106-496: coiled-coil segment of the linker region and the C-terminal domain; Co-purifies with glycerophospholipid from E. coli; Plasmids of the study are in Addgene (192832, 192833, 192834, 192835, 192837, 192866, 192867); also called CeMIGA2_(long); CeMIGA_(long); source: E. coli C43 (DE3), purified (Ni-NTA, sumo protease, second …)) SMNPIEADITSGQELCTELRKTIEKVHHNLEMVKNRSSKDMERSIKIEGILKGLKQVEDEIVLLVPQMEDFRDDNMEFYSVSGGSGYAGSVRTGRSRTLSVLSDDSFRSAVEEFACDIDDIDFVSDAANLDKNELRFLDEGMQAALNGEVKYRKSRMEFCKCDSETDFAAKLYCVRQALTNALKDEHKRVWLAKCGRTLLADFIRHTKQDPVKFFNAYDEMLEYVSNDRNEEQLRQDVEGRGVCETGFYDVAIDFIILDAFEDLKSPPSAVYSVTKNYFMSMSMKYSTLNTIIWSIIKSKRQRLKNPDGFIAKFYNISETVMPAITLGFLGTDERLGELCQYFKEQVVQFVLDVFNTQKVCYRSLEEMSEDVWIVMRNRLEAVQTRMSNEL | – | – | stoichiometry N [7]: 2
